The subject of one data set is MDSCs. As to the kind of experiment: Phenotype, viability and morphology of in vitro generated MDSC cultures. It is filed as cell-based, mouse. Here is the method: In Vitro Development of MDSCs. Unfractionated mouse bone marrow cells were cultured in dishes with recombinant mouse G-CSF and recombinant mouse GM-CSF (40 ng/ml of each cytokine) for 96 hours to produce MDSCs, as described (Marigo et al. Immunity 32:790-802, 2010). After culture, cells were collected and analyzed by flow cytometry for the indicated cell surface markers. Uncultured or fresh bone marrow (BM) cells served as a negative control.
Effect of BRQ Treatment on In Vitro Generated MDSCs. As in FIG. 4, MDSCs were generated in vitro, but now with or without (vehicle) the concurrent addition of brequinar (BRQ) (1 μM) at the start of the culture. After culture, cells were collected and analyzed by flow cytometry for the indicated cell surface markers. Uncultured (fresh) BM cells served as a negative control. Viable cells were enumerated by trypan blue dye exclusion (bottom left panel, % viability; bottom right panel, total viable cells recovered).
Cells Treated with BRQ Appear More Mature Morphologically and Phenotypically. Methods were the same as in FIG. 6. MDSCs were generated in vitro with or without BRQ. Afterwards, cells were collected and analyzed morphologically by Wright-Giemsa staining of cytospin-prepared slides. Left top panel, representative photomicrograph images [(arrows indicate representative immature myeloid (−BRQ) vs. mature (+BRQ) cell types)]; Left bottom panel, the % of each cell type was quantified as follows. Cells were classified into 3 main morphologic cell types, as shown. For the lower panel, 300 cells were analyzed per random field and 3 separate fields were analyzed (totaling 900 cells). The average number of each cell type was determined by dividing by 3, and the data were converted to a percentage within the total population. Using the in vitro assay described previously to produce MDSCs, the CD11b^+Ly6C^lo Ly6G^+ subset (also known as PMN-MDSCs) was analyzed for cell surface CD101 expression by flow cytometry on cultures without BRQ (labeled here as ‘GM-CSF+G-CSF’) or with BRQ. Isotype control staining was included as a negative control for the specificity of CD101 reactivity. Middle panel, representative histogram; right panel, mean fluorescence intensity (MFI) data quantified from 2 separate experiments.

The test system of the next data set is AT-3 tumor cells. As to the kind of experiment: AT-3 orthotopic mammary tumor model: tumor growth and splenic flow cytometry. Type of data set: in vivo, mice. Here is the method:
Treatment of Tumor-Bearing Mice Alters Surface Phenotype of Myeloid Cells. […] Female BALB/c or C57BL/6 mice were orthotopically implanted with 4T1 or AT-3 mammary tumor cells, respectively, and were monitored 3 times weekly for tumor growth. When tumors became measurable (indicated by the arrow), BRQ was administered daily (10 mg/kg intraperitoneally), and at endpoint the BM cells or spleens were collected for flow cytometric analysis for the expression (i.e., percentage or MFI value) of the indicated cell surface markers (FIGS. 13-15). We extended our in vitro studies with BRQ to […] to determine the impact of BRQ on MDSC maturation. To that end, mice bearing orthotopically implanted mammary tumors were treated with or without BRQ in vivo using a similarly previously reported dose, frequency and schedule (Sykes et al. Cell 167:171-186, 2016). The first tumor model chosen was 4T1, which is an aggressive mammary tumor cell line that induces a robust MDSC response largely comprised of PMN-MDSCs.
Female C57BL/6 mice were orthotopically implanted with AT-3 tumor cells and were monitored 3 times weekly for tumor growth. When tumors became measurable, BRQ was administered daily (10 mg/kg intraperitoneally), and at endpoint the spleens were collected and analyzed by flow cytometry for the indicated cell surface markers. Tumor growth is shown in the upper panel of FIG. 16 while representative flow cytometry data is shown in the lower panel.

[1] abbreviates: BRQ 1 μM, trypan blue dye exclusion.
Where [2] appears, read: bone marrow cells cultured with BRQ, morphologic analyses.
The mark [3] stands for this setting: cultures with BRQ, Wright-Giemsa staining.

As for `Cc1c(-c2ccc(-c3ccccc3F)cc2)nc2ccc(F)cc2c1C(=O)O` [BRQ, 6-Fluoro-2-(2′-fluoro-[1,1′-biphenyl]-4-yl)-3-methylquinoline-4-carboxylic acid], the “generation of CD11b+Gr-1+ cells” value with MDSCs (BRQ 1 μM, flow cytometry) is “did not substantially alter”. Moreover, in the data set on MDSCs (setting [1]), the cell viability entry is “not significantly altered” and the “number of live cells recovered” value was “substantially reduced”. For the same compound, in the data set on MDSCs (setting [2]), the “mature myeloid cells (mainly neutrophils and macrophages)” value is given as “corresponding increase in mature myeloid cells”; the “reduction in immature myeloid cells” value was 75%. Moreover, in the data set with MDSCs (setting [3]), the immature cell types result is recorded as “reduction in immature cell types”, the proportion of macrophages entry is “no demonstrable effect” and the “proportion of segmented neutrophils” value was “increased the proportion of segmented neutrophils”. In addition, the “cell surface CD101 expression (MFI) on CD11b+Ly6CloLy6G+ subset” value in the data set with MDSCs (cultures with BRQ, flow cytometry) is recorded as “significantly increased the expression of CD101”. For the same compound, in the data set with AT-3 tumor cells (AT-3-bearing mice, spleen), the “Ly6C expression on the granulocytic (PMN-MDSC) subset” value was “significantly increased the expression of Ly6C”, the “Ly6C or Ly6G expression on the monocytic subset” value was “no significant changes” and the “Ly6G expression on the surface of granulocytes” value was “increased the expression of Ly6G”. Besides, in the data set on AT-3 tumor cells (C57BL/6 mice, BRQ 10 mg/kg i.p. daily), the AT-3 tumor growth entry is “minimal effects on inhibiting tumor growth”.

These data come from patent publication US12594271B2, “Combination therapy for cancer” (Health Research, Inc., priority 2019, dated 2026).
